Source: ChEMBL document CHEMBL1201862, “PubChem BioAssay data set” (2004)
Activity calls are given as the source filed them.

Columns and labels:
Format in all cases: functional
[1] = target: T1, Heat shock factor protein 1 (Mus musculus, UniProt P38532); assay: decrease of HSF1-responsive luciferase luminescence – cell-based, NIH3T3, dose retest, confirmation (AID 2382);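 further: NIH3T3 fibroblasts with HSF1-driven luciferase reporter stressed by proteasome inhibitor MG132; luminescence from HSF1-driven luciferase expression after 8 hours of MG132 stress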
T1 sequence (P38532 whole entry): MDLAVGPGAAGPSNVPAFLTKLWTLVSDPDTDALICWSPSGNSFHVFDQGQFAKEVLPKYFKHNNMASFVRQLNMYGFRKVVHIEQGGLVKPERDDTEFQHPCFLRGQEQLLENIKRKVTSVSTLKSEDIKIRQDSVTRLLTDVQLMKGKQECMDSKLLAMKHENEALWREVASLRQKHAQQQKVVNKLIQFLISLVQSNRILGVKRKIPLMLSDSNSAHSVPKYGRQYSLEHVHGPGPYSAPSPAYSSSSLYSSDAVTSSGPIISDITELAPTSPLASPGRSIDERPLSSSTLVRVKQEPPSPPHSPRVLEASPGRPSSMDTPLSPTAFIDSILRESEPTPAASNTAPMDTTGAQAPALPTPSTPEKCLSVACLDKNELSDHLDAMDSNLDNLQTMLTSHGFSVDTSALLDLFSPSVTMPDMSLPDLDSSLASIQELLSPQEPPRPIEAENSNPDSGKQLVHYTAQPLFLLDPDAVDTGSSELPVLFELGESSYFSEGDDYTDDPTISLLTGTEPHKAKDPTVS

Protein skinhead-1 = target: T2, Protein skinhead-1 (Caenorhabditis elegans, UniProt P34707)
T2 sequence (P34707 whole entry): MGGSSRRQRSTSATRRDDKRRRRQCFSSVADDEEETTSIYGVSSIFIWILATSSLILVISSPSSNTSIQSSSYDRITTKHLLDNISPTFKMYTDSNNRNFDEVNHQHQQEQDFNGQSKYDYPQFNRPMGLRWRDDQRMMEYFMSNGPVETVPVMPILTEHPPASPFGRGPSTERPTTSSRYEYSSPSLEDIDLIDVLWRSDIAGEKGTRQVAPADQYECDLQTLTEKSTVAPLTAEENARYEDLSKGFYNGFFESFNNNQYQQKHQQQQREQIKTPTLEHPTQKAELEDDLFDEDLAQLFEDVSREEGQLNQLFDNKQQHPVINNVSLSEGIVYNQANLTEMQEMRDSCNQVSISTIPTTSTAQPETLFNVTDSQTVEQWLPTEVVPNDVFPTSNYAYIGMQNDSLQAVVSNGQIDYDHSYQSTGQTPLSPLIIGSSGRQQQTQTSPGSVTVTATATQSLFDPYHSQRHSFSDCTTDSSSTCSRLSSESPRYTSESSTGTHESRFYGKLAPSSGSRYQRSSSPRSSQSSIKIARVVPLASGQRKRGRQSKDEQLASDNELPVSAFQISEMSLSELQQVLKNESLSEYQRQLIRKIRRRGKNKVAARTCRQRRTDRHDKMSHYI

[2] = Luminescence Cell-Based Dose Retest to Confirm Inhibitors of Cancer Stem Cells. [Related pubchem assays (depositor defined):AID2717, AID2721]; settings: Homo sapiens
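Wherever AC50 is given: cells exposed to compound for roughly 70 hours or longer before luminescence read.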

Row | Structure (SMILES) | EC50 [1] | IC50 (Protein skinhead-1) | other results
1 | O=C(COC(=O)[C@H](Cc1ccccc1)N1C(=O)c2ccccc2C1=O)Nc1ccc2c(c1)OCO2 | > 195 µM (not active) |  | 
2 | Cc1ccc(C)c(NC(=O)c2sc(Cl)nc2-c2ccccc2)c1 |  | > 100 µM (inactive) | 
3 | COc1ccc(C(=O)c2ccc3oc(-c4ccc(OC)cc4)c(-c4ccc(O)cc4)c3c2)cc1 |  |  | AC50 [2]: 3.31 µM (active)
4 | Cc1cccc(N2CCN(C(c3ccccc3)c3nnnn3CC3CCCO3)CC2)c1C (configuration not stated) | > 195 µM (not active) |  | 
5 | CN(Cc1ccccc1)C(=O)CCn1c(=O)oc2ccccc21 | > 195 µM (not active) |  | 
6 | Cn1c(N2CCOCC2)nc(-c2ccccc2)c1-c1ccccc1 | > 195 µM (not active) |  | 
7 | CC(=O)N(c1ccc2oc(=O)sc2c1)S(=O)(=O)c1ccc(C(=O)O)cc1 | > 195 µM (not active) |  | 
8 | Cc1ccc(NC(=O)N2CCCC2C(=O)NCC2CCCCC2)cc1 (configuration not stated) | > 195 µM (not active) |  | 
9 | CCOC(=O)c1cc(-c2ccco2)nc2c1c(C)nn2-c1ccccc1 |  | > 100 µM (inactive) | 
10 | CC(=O)Nc1cccc(NC(=O)CSc2nnc(Cc3cccn3C)n2-c2ccc(F)cc2)c1 | > 195 µM (not active) |  | 
11 | CCOCC(=O)Nc1cccc(Br)c1 |  | > 100 µM (inactive) | 
12 | CN(C)CCNC(=O)c1sc2nc(-c3ccccc3)cc(C(F)(F)F)c2c1N |  |  | AC50 [2]: 2.65 µM (active)
13 | O=c1c2ccccc2oc2ccc(-c3ccc4cc[nH]c4c3)cc12 |  | > 100 µM (inactive) | 
14 | Cn1ccnc1SCC(=O)N(C1CCCCC1)C1CCCCC1 | > 195 µM (not active) |  | 
15 | Cc1cccc(CC(=O)NCCn2c(C)cc3ccccc32)c1 |  | > 100 µM (inactive) | 
16 | Cc1cc(OCCCCN2C(=O)NC(C)(C)C2=O)cc(C)c1Cl |  | > 100 µM (inactive) | 

Row | Structure (SMILES) | EC50 [1] | IC50 (Protein skinhead-1) | other results
17 | CC(C)c1nc(-c2ccc([N+](=O)[O-])cc2)cs1 |  | 13.4 µM (active) | 
18 | O=C(/C=C/c1ccc2c(c1)OCO2)NCCSCc1c(Cl)cccc1Cl |  |  | AC50 [2]: 1.42 µM (active)
19 | CC(C)CC(C(=O)NCc1ccccn1)N1C(=O)c2ccccc2C1=O (configuration not stated) |  | > 100 µM (inactive) | 
20 | OC(c1ccccn1)c1c[nH]c2ccccc12 (configuration not stated) |  | > 100 µM (inactive) | 
21 | CCOC(=O)c1c(-c2ccc(Cl)cc2)csc1NC(=O)CNCc1ccco1 |  |  | AC50 [2]: 2.72 µM (active)
22 | COc1ccc(C2CC(c3ccccc3)=NN2S(=O)(=O)c2ccc(C)cc2)c(OC)c1 (configuration not stated) |  | > 100 µM (inactive) | 
23 | CCn1c(=O)c(C(=O)Nc2ccccc2F)c(O)c2ccccc21 | > 195 µM (not active) |  | 
24 | CCCc1ccc(-c2cc(NC(=O)CSc3nnc(N)s3)n(-c3ccccc3)n2)cc1 |  |  | AC50 [2]: 3.72 µM (active)
25 | CC(C)(C)NC(=O)c1cccc(NC(=O)Cc2cccs2)c1 | > 195 µM (not active) |  | 
26 | COc1ccc(C(C)=O)cc1CN1C(=O)C(C)ON=C1c1cccc(C(F)(F)F)c1 (configuration not stated) |  | > 100 µM (inactive) | 
27 | Cn1c(=O)c2ncn(CC(=O)Nc3ccc4c5c(cccc35)CC4)c2n(C)c1=O | > 195 µM (not active) | > 100 µM (inactive) | 
28 | O=C(Nc1ccc(Nc2ccccc2)cc1)Nc1ccccc1Cl |  |  | AC50 [2]: 2.12 µM (active)
29 | CCCCN=C(S)NNc1c(Cl)cc(Cl)cc1Cl | > 195 µM (not active) |  | 
30 | O=C(OCC(=O)N1N=C(c2ccc(Cl)cc2)CC1c1ccco1)c1ccccc1O (configuration not stated) |  | > 100 µM (inactive) | 
31 | Nc1nc(Cl)nc(N(c2ccccc2)c2ccccc2)n1 | > 195 µM (not active) |  | 
